ChEMBL document CHEMBL3758182, “Synthesis of Alocasin A” (J Nat Prod, 2015)

Assays:
[1] = Antiproliferative activity against human Hep2 cells; assay type: functional, cell-based; settings: HEp-2
HepG2 = assay: Antiproliferative activity against human HepG2 cells; assay type: functional, cell-based

Compound: Oc1ccc2[nH]cc(-c3cnc(-c4c[nH]c5ccc(O)cc45)cn3)c2c1
- IC50 [1]: 151 µM
- IC50 (HepG2): 85 µM
